Data set [1] can be described thus: Viability of human keratinocytes in culture (MTT test). The format is cell-based. The conditions noted are these: human, primary human keratinocytes in monolayer culture. The procedure: (§1) Human keratinocyzes are obtained from parts removed by surgery and are cultured in a monolayer to preconfluence. 7α-Hydroxy-DHEA is administered to these cultures at various concentrations in ethanolic solution (10%), each concentration being tested eight times. Controls are carried out with ethanol alone (10%). After 24 hours, the viability of the keratinocytes is measured by testing with MTT (3-(4,5-dimethylthiazol-2-yl)-2,5-diphenyltetrazolium bromide) where the mitochondrial dehydrogenase succinate transforms the MTT into blue crystals of formazan which are soluble in DMSO (Mosmann, J. Immunol. Methods 65: 55-63, 1983). The cell viability is calculated according to the formula:
(§2) Any value greater than 100 indicates a product favoring cell viability.
A general note: Tetrazolium assays rely on reduction of a dye to a coloured formazan, in cell work by metabolically active cells.

Data set [2] relates to human keratinocytes. Described as above. The format is cell-based. The conditions noted are these: concentrations tested 10^−4 M to 10^−8 M. The procedure:
as §1, §2

For data set [3], the system named is human keratinocytes. In words: Anti-free radical effect on UVA-irradiated suspension of human keratinocytes (lipid peroxides by chemiluminescence). The format is cell-based. The conditions noted are these: 10^−6 M, calculated on nonirradiated controls and reference of protection. The procedure: Keratinocytes originating from a healthy donor are cultured to the subconfluent stage in medium (KGM) which is specific for the proliferation of the keratinocytes. The suspensions obtained are divided in triplicate into 4 series of which 3 are irradiated for 30 min with a lamp emitting UVA in order to activate the production of free radicals. Among the three irradiated series, one contains the vitamins C+E (0.7%) and serves as a reference of protection, one contains 7α-hydroxy-DHEA at 10^−6M and the last serves as a control.
The free radicals produced generate lipid peroxides which are determined by chemiluminescence (Belghmi et al. J. Biolum. Chemilum. 2: 113-119, 1982). The efficacy of 7α-hydroxy-DHEA is calculated on the basis of nonirradiated controls and of the reference of protection.

Data set [4] concerns thymocytes of C57BL/6 mice (mouse T cells). The experiment in a line: Cell apoptosis induced by glucocorticoids in cultured mouse thymocytes (flow cytometry, propidium iodide). It counts as cell-based, mouse (C57BL/6). The procedure:
The thymus of C57BL/6 mice aged 4 weeks is removed. Culturing of the thymocytes is carried out for 6 hours in RPMI 1640 medium and in the presence or in the absence of the steroid tested. Apoptosis (fragmentation of the DNA) is measured by flow cytometry after labeling with propidium iodide. The apoptotic phenomenon is checked by electrophoresis of the DNA, which is visualized by ethidium bromide according to the conventional technique (observation of ranges of 200 base pairs).
On the technique in general: Flow cytometry measures light scatter and fluorescence of single cells or particles in a stream.

[5] abbreviates: steroid 10^−5 M together with Dexamethasone 10^−5 M, 6 hours, dexamethasone alone 73.5.
[6] abbreviates: steroid 10^−6 M together with Dexamethasone 10^−6 M, 6 hours, dexamethasone alone 72.7.

A word on the viability: it is a read-out of living cells in per cent, often relative to untreated cells.

`C[C@]12CC[C@H](O)CC1=C[C@@H](O)[C@@H]1[C@@H]2CC[C@]2(C)C(=O)CC[C@@H]12` [7α-hydroxy-DHEA, 3β,7α-dihydroxy-5-androsten-17-one]: the viability at 24 h in data set [1] (5.10^−5 M, 24 hours, control 100) was determined as 111 ± 7%; in data set [1] (5.10^−6 M, 24 hours, control 100), 147 ± 9%; in data set [1] (5.10^−7 M, 24 hours, control 100) it was 139 ± 3%; in data set [1] (10^−4 M, 24 hours, control 100), 124 ± 10%; in data set [1] (10^−5 M, 24 hours, control 100), 119 ± 7%; in data set [1] (10^−6 M, 24 hours, control 100) it was 154 ± 6%. The viability at 24 h in data set [1] (10^−7 M, 24 hours, control 100) came out at 147 ± 5%; in data set [1] (10^−8 M, 24 hours, control 100), 127 ± 3%. Further, in the data set on human keratinocytes [2], the Cytotoxicity on keratinocytes entry is given as “no cytotoxicity was observed”. Further, the Efficacy in the data set on human keratinocytes [3] is reported as 90%. The “Apoptotic cells (%)” value in data set [4] (setting [5]) was found to be 48.6%; in data set [4] (setting [6]), 58.8%.

For the compound `C[C@]12CC[C@H](O)C[C@@H]1C[C@@H](O)[C@@H]1[C@@H]2CC[C@]2(C)C(=O)CC[C@@H]12` [7α-hydroxy-ISOA, 3β,7α-dihydroxy-5α-androstan-17-one], the “Apoptotic cells (%)” value in data set [4] (setting [5]) is 46.3%; in data set [4] (setting [6]) it was 72.0%.

`C[C@]12CC[C@H](O)CC1=CC[C@@H]1[C@@H]2CC[C@]2(C)C(=O)CC[C@@H]12` [DHEA, 3β-hydroxy-5-androstene-17-one, reference compound]: the viability at 24 h in data set [1] (other comparative tests, concentration not given) was 100 ± 5%. For the same compound, the “Apoptotic cells (%)” value worked out at 51.4% in data set [4] (setting [5]) and 39.0% in data set [4] (setting [6]).

For the compound `C[C@@H]1C[C@H]2[C@@H]3CCC4=CC(=O)C=C[C@]4(C)[C@@]3(F)[C@@H](O)C[C@]2(C)[C@@]1(O)C(=O)CO` [Dexamethasone, reference compound], the “Apoptotic cells (%)” value in data set [4] (Dexamethasone 10^−5 M alone, thymocytes cultured 6 hours, ethanol alone 41.5) worked out at 73.5%; in data set [4] (Dexamethasone 10^−6 M alone, thymocytes cultured 6 hours, ethanol alone 41.5), 72.7%.

The values above are taken from patent US6620803B2, “Cosmetic or dermatological use of 7-hydroxylated steroids” (Vitasterol SARL, priority 1997, dated 2003).
